Assay results as given in US20150297643A1, “INHIBITION OF RHO AND OR ROCK AND CELL TRANSPLANTATION” (priority 2012, published 2015).

Test system: retinal ganglion cells (RGCs)
Format: in vivo, rat

Molecule: C[C@@H](N)C1CCN(S(=O)(=O)c2cccc3cnccc23)CC1 [BA-1049]
- neuroprotection of RGCs (highest dose tested (10 uM and 100 uM BA-1049 tested)): modest neuroprotection
- effect on RGC survival (FIG. 5) (very high concentration (1 mM)): detectable effect

Molecule: C[C@@H](N)[C@H]1CC[C@H](C(=O)Nc2ccncc2)CC1 [Y-27632]
- neuroprotective effect on RGCs (100 uM and 1 mM Y-27632, one week after optic nerve injury): No neuroprotective effect
- rescue of neurons from trauma-induced cell death (Example 8, summary) (rat, in vivo): not able to rescue neurons from trauma-induced cell death

Molecule: C3-transferase
- RGCs protected after axotomy (rat, in vivo): 80%
